# Laboratory results as given in US20140363489A1, “TREATMENT OF EYE DISEASE” (Panacea Pharmaceuticals, priority 2013, published 2014).
# “Also recorded” adds a separate entry of the source. Like-named read-outs stand apart in the source and are kept apart here.
# How the values were obtained:
# retinal degeneration [1] = conditions: RSC rats; cited from earlier work
# retinal degeneration [2] = conditions: RCS, P23H, S334ter, photo stress rats, rd mice, CAR model rats (Ohguro, 2008); cited from earlier work
# ischemic stroke = ischemic stroke model (Jiang et al., 2006); cited from earlier work
# [3] = system: photoreceptor neurons of rd1 mouse retina; test: ex vivo rd1 mouse retina culture, photoreceptor rows and nucleus numbers; format: cell-based; conditions: 10 μM
# Experimental: The effect of PAN-811 was examined in an ex vivo model, in which retinas were isolated from rd1 mouse at PN7 and treated in culture with 0, 2 and 10 μM PAN-811 for 21 days (equal to PN28).
# The one model of RP study is rd1 mouse in which, like in RP patient, the gene for β-phospodiesterase is spontaneously mutated in rod photoreceptor neurons results in the rod cell loss. The apoptosis starts at postnatal day (PN) 9 to 10, peaks at PN13 and is completed at PN21.
# To test the effect PAN-811, retinas from rd1 (C3H strain) mice at PN7 were cultured in the presence of 0 (n=6), 2 (n=6) and 10 (n=7) μM PAN-811. After 21 days in vitro (equal to PN28), the hematoxylin/eosin stained retinal section was analyzed at five positions; the very center of the retina plus at two positions on each side of this, approximately 200 μm apart, and referred to as mid-periphery and periphery, respectively. The retina from the rd1 mouse commonly carried only a thin layer of photoreceptor neurons (FIG. 1A—photo on left). […] Quantitatively, a control group has two layers of photoreceptor neurons at center, mid-periphery or pheriphery (FIG. 1B). PAN-811 at a concentration of 10 μM, but not 2 μM, increased the row numbers from 2 to 3 (P<0.05) at all measured areas.
# Nucleus numbers for photoreceptor neurons that locate in center (n=7), mid-periphery (n=6) and periphery (n=6) were counted on photos (within 35 mm length of rode photoreceptor layer after magnification) by ImageJ software (NIH) and the data were expressed as percentage of untreated control. […]
# Twenty retinas from 10 rd1 mice (C3H strain) were dissected out at PN7 and mounted flat on HA mixed cellulose, 0.45 μm membranes fitted to culture dish inserts (Millipore Corp). […] The sections were analyzed and photographed under a microscope, blindly with respect to origin The rows of photoreceptors in the outer nuclear layer of the retina were quantitatively evaluated in a total of at least 30 sections for each preparation (4 slides from each preparation and 8 sections from each slide). […]
# [4] = cited from earlier work
molecule,measurement,setting,value
COC(=O)C1=C(C#N)NC(C)=C(C(=O)OC(C)C)C1c1cccc([N+](=O)[O-])c1 (stereo not shown) [Nilvadipine],effect against retinal degeneration,retinal degeneration [1],beneficial effect against retinal degeneration
same,effect against retinal degeneration,retinal degeneration [2],beneficial effects against retinal degeneration in all models tested
"NC(=S)N/N=C/c1ncccc1N [PAN-811, 3-aminopyridine-2-carboxaldehyde thiosemicarbazone]",neuroprotective activity,ischemic stroke,potent neuroprotective activity
same,increase of nucleus numbers of photoreceptor neurons vs untreated control,"[3]; 21 days in vitro, center, mid-periphery and periphery, P<0.01",about 50%
same,row numbers of photoreceptor neurons,"[3]; 21 days in vitro, center, mid-periphery, periphery, control 2 rows, P<0.05",3
same,loss of photoreceptor neurons / thickness of photoreceptor layer,"[3]; retinas from rd1 mouse at PN7, 21 days in culture",prevents loss of photoreceptor neurons; also recorded: prevented the loss of photoreceptor neurons; also recorded: thicker
"CNTF: Ciliary neurotrophic factor, neurotrophic factor delivered into eye (protein, UniProt P26441 1-200, looked up) Ciliary neurotrophic factor: MAFTEHSPLTPHRRDLCSRSIWLARKIRSDLTALTESYVKHQGLNKNINLDSADGMPVASTDQWSELTEAERLQENLQAYRTFHVLLARLLEDQQVHFTPTEGDFHQAIHTLLLQVAAFAYQIEELMILLEYKIPRNEADGMPINVGDGGLFEKKLWGLKVLQELSQWTVRSIHDLRFISSHQTGIPARGSHYIANNKKM",half-life in vivo,[4],2 to 6.67 h
